# Reference: US4808711A, “Cephalosporin derivatives” (Sankei Pharmaceutical Co., Ltd., priority 1985, dated 1989)
# Read-outs that look alike come from different tables or passages of the source.
# How the values were obtained:
# Assay type in all cases: cell-based
# [1] = tested on: S. marcescens IFO12648; assay: MIC, S. marcescens IFO12648
# Procedure: (§1) The minimum inhibition concentrations (MIC) of the compounds obtained by the present invention were measured according to the standard method of Japanese Chemotherapy Association.
# [2] = tested on: P. aeruginosa ATCC9721; assay: MIC, P. aeruginosa ATCC9721; settings: Pseudomonas aeruginosa, ATCC9721
# Procedure: as §1
# [3] = tested on: S. aureus 209P JC-1; assay: MIC, S. aureus 209P JC-1
# Procedure: as §1
# [4] = tested on: E. coli NIHJ JC-2; assay: MIC, E. coli NIHJ JC-2
# Procedure: as §1
# [5] = tested on: P. rettgeri ATCC14505; assay: MIC, P. rettgeri ATCC14505
# Procedure: as §1
# [6] = tested on: S. epidermidis ATCC14990; assay: MIC, S. epidermidis ATCC14990
# Procedure: as §1
# [7] = tested on: P. mirabilis IFO3849; assay: MIC, P. mirabilis IFO3849
# Procedure: as §1
# [8] = tested on: S. aureus TASAKI; assay: MIC, S. aureus TASAKI; settings: Staphylococcus aureus
# Procedure: as §1
# [9] = tested on: P. putida ATCC12633; assay: MIC, P. putida ATCC12633; settings: Pseudomonas putida
# Procedure: as §1
# [10] = tested on: E. cloacae ATCC13047; assay: MIC, E. cloacae ATCC13047; settings: Enterobacter cloacae
# Procedure: as §1
# [11] = tested on: S. newport 563; assay: MIC, S. newport 563
# Procedure: as §1
# [12] = tested on: C. freundii IFO12681; assay: MIC, C. freundii IFO12681
# Procedure: as §1
# [13] = tested on: P. cepacia ATCC25416; assay: MIC, P. cepacia ATCC25416
# Procedure: as §1
# [14] = tested on: S. aureus Smith; assay: MIC, S. aureus Smith
# Procedure: as §1
# [15] = tested on: S. boyadii CDC 2064-59; assay: MIC, S. boyadii CDC 2064-59
# Procedure: as §1
# [16] = tested on: S. flexneri 2a CDC 4807-62; assay: MIC, S. flexneri 2a CDC 4807-62
# Procedure: as §1
# [17] = tested on: S. typhimurium ATCC13311; assay: MIC, S. typhimurium ATCC13311
# Procedure: as §1
# [18] = tested on: S. flexneri Y NCTC 9730; assay: MIC, S. flexneri Y NCTC 9730
# Procedure: as §1
# [19] = tested on: S. typhi 1099-77; assay: MIC, S. typhi 1099-77
# Procedure: as §1
# [20] = tested on: S. paratyphi B; assay: MIC, S. paratyphi B
# Procedure: as §1
# [21] = tested on: P. maltophilia ATCC13637; assay: MIC, P. maltophilia ATCC13637; settings: Stenotrophomonas maltophilia
# Procedure: as §1
# [22] = tested on: S. sonnei SH72-415; assay: MIC, S. sonnei SH72-415
# Procedure: as §1
# [23] = tested on: S. paratyphi A 144-12-93; assay: MIC, S. paratyphi A 144-12-93
# Procedure: as §1
# [24] = tested on: S. dysenteriae 4379-60; assay: MIC, S. dysenteriae 4379-60
# Procedure: as §1
# [25] = tested on: S. aureus ATCC25923; assay: MIC, S. aureus ATCC25923; settings: Staphylococcus aureus, ATCC25923
# Procedure: as §1
# [26] = tested on: S. typhimurium IFO 12529; assay: MIC, S. typhimurium IFO 12529
# Procedure: as §1
# [27] = tested on: K. pneumoniae ATCC27736; assay: MIC, K. pneumoniae ATCC27736
# Procedure: as §1
# [28] = tested on: E. coli ATCC25922; assay: MIC, E. coli ATCC25922
# Procedure: as §1
# [29] = tested on: B. subtilis ATCC6633; assay: MIC, B. subtilis ATCC6633
# Procedure: as §1
# [30] = tested on: S. anatum 677-69; assay: MIC, S. anatum 677-69
# Procedure: as §1
# [31] = tested on: S. paratyphi C 33-76; assay: MIC, S. paratyphi C 33-76
# Procedure: as §1
# [32] = tested on: P. vulgaris ATCC6398; assay: MIC, P. vulgaris ATCC6398
# Procedure: as §1
# [33] = tested on: S. faecalis IFO3826; assay: MIC, S. faecalis IFO3826
# Procedure: as §1
# [34] = tested on: P. vulgaris ATCC6380; assay: MIC, P. vulgaris ATCC6380
# Procedure: as §1
# [35] = tested on: P. fluorescens ATCC13525; assay: MIC, P. fluorescens ATCC13525
# Procedure: as §1
# [36] = Salmonella enterica, read-out: MIC
# [37] = Proteus vulgaris, read-out: MIC
compound,measurement,setting,value
"CO[C@@]1(NC(=O)C(C(=O)O)c2ccc(O)cc2)C(=O)N2C(C(=O)O)=C(CSc3nnnn3C)CO[C@@H]21 (some centres unmarked) [LMOX, latamoxiceph]",MIC,"[1]; Serratia marcescens, read-out: MIC",0.2 µg/mL
same,MIC,[2],3.13 µg/mL
same,MIC,"[3]; Staphylococcus aureus, 209P",3.13 µg/mL
same,MIC,"[4]; Escherichia coli, NIHJJC2, read-out: MIC",0.2 µg/mL
same,MIC,"[5]; Providencia rettgeri, read-out: MIC",0.1 µg/mL
same,MIC,"[6]; Staphylococcus epidermidis, read-out: MIC",6.25 µg/mL
same,MIC,"[7]; Proteus mirabilis, read-out: MIC",0.1 µg/mL
same,MIC,[8],3.13 µg/mL
same,MIC,[9],25 µg/mL
same,MIC,[10],0.78 µg/mL
same,MIC,[11]; [36],0.1 µg/mL
same,MIC,"[12]; Citrobacter freundii, read-out: MIC",0.1 µg/mL
same,MIC,"[13]; Burkholderia cepacia, read-out: MIC",6.25 µg/mL
same,MIC,"[14]; Staphylococcus aureus, read-out: MIC",6.25 µg/mL
same,MIC,[15],3.13 µg/mL
same,MIC,"[16]; Shigella flexneri, read-out: MIC",0.1 µg/mL
same,MIC,[17]; [36],0.05 µg/mL
same,MIC,"[18]; Shigella flexneri, NCTC9730, read-out: MIC",3.13 µg/mL
same,MIC,"[19]; Salmonella enterica, TYPHI",0.05 µg/mL
same,MIC,"[20]; Salmonella enterica, PARATYPHI",0.05 µg/mL
same,MIC,[21],25 µg/mL
same,MIC,"[22]; Shigella sonnei, SH72415, read-out: MIC",0.1 µg/mL
same,MIC,"[23]; Salmonella enterica, PARATYPHI",0.2 µg/mL
same,MIC,"[24]; Shigella dysenteriae, 437960",0.05 µg/mL
same,MIC,[25],3.13 µg/mL
same,MIC,[26]; [36],0.1 µg/mL
same,MIC,"[27]; Klebsiella pneumoniae, read-out: MIC",0.05 µg/mL
same,MIC,"[28]; Escherichia coli, read-out: MIC",0.2 µg/mL
same,MIC,"[29]; Bacillus subtilis, ATCC6633",3.13 µg/mL
same,MIC,"[30]; Salmonella enterica, 67769, read-out: MIC",0.1 µg/mL
same,MIC,"[31]; Salmonella enterica, PARATYPHI",0.025 µg/mL
same,MIC,[32]; [37],0.2 µg/mL
same,MIC,"[33]; Enterococcus faecalis, read-out: MIC",> 100 µg/mL
same,MIC,[34]; [37],0.2 µg/mL
cephazoline [CAZ],MIC,[1],0.39 µg/mL
same,MIC,[3]; S. aureus 209P JC-1,0.78 µg/mL
same,MIC,[4],0.78 µg/mL
same,MIC,[5],0.39 µg/mL
same,MIC,[6],6.25 µg/mL
same,MIC,[7],0.2 µg/mL
same,MIC,[11],0.78 µg/mL
same,MIC,[12],0.39 µg/mL
same,MIC,[13],6.25 µg/mL
same,MIC,[14],6.25 µg/mL
same,MIC,[35],3.13 µg/mL
same,MIC,[16],0.2 µg/mL
same,MIC,[17],0.39 µg/mL
same,MIC,[18],0.39 µg/mL
same,MIC,[19]; S. typhi 1099-77,0.39 µg/mL
same,MIC,[20]; S. paratyphi B,0.78 µg/mL
same,MIC,[22],0.39 µg/mL
same,MIC,[23]; S. paratyphi A 144-12-93,1.56 µg/mL
same,MIC,[24]; S. dysenteriae 4379-60,0.2 µg/mL
same,MIC,[26],0.78 µg/mL
same,MIC,[27],0.78 µg/mL
same,MIC,[28],0.39 µg/mL
same,MIC,[29]; B. subtilis ATCC6633,6.25 µg/mL
same,MIC,[30],0.78 µg/mL
same,MIC,[31]; S. paratyphi C 33-76,0.1 µg/mL
same,MIC,[32],0.1 µg/mL
same,MIC,[33],> 100 µg/mL
same,MIC,[34],0.2 µg/mL
